# Target: T1, human glucagon receptor (Homo sapiens, UniProt P47871)
# T1 construct: expressed in transfected cells; host or cells: BHK (baby hamster kidney) cells
# Test: Glucagon Binding Assay (III)
# Conditions: BHK cell membranes, WGA SPA beads, 125I-glucagon; read-out: Glu Bd Assay (III) IC50
# Procedure, shortened: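 Membranes from BHK cells transfected with the human receptor, prepared at 4 °C, were used in a WGA-bead scintillation proximity binding format. Plates were shaken for 4 hours, left to settle 8–48 hours and then counted. Non-specific binding was defined with 500 nM glucagon.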
# T1 sequence (P47871 26-477): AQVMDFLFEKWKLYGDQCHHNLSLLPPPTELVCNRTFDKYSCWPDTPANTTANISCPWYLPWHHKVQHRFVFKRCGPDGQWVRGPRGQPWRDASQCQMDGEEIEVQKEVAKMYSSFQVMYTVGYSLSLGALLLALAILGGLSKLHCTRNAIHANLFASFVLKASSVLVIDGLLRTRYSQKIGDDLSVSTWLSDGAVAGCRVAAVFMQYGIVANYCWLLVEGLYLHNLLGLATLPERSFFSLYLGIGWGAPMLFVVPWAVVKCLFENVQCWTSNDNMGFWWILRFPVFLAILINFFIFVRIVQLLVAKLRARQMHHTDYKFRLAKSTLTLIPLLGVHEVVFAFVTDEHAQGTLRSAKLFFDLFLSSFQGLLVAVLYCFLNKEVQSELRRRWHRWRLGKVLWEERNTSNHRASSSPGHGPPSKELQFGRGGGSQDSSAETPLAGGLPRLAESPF
row,IC50 [nM],Compound
1,1100,"CC1CCC(N(Cc2ccc(C(=O)NCCC(=O)O)cc2)C(=O)Nc2ccc(Oc3ccccc3)cc2)CC1 (stereo not drawn) [Example 22, 3-{4-[1-(4-Methylcyclohexyl)-3-(4-phenoxyphenyl)ureidomethyl]benzoylamino}propionic acid]"
2,960,"CS(=O)(=O)c1cc(NC(=O)N(Cc2ccc(C(=O)Nc3nn[nH]n3)cc2)c2ccc(C3CCCCC3)cc2)cc(S(C)(=O)=O)c1 [Example 321, 4-[3-(3,5-Bis(methylsulfonyl)phenyl)-1-(4-cyclohexylphenyl)ureidomethyl]-N-(2H-tetrazol-5-yl)benzamide]"
3,27,"CC(C)(C)C1CCC(N(Cc2ccc(C(=O)NCCC(=O)O)cc2)C(=O)Nc2ccc(Oc3ccccc3)cc2)CC1 (stereo not drawn) [Example 17, 3-{4-[1-(4-tert-Butylcyclohexyl)-3-(4-phenoxyphenyl)ureidomethyl]benzoylamino}propionic acid]"
4,1470,"CC(C)Cc1ccc(C(=O)N(Cc2ccc(C(=O)Nc3nn[nH]n3)cc2)c2ccc(N3CCCCC3)cc2)cc1 [Example 518, 4-{[(4-Isobutylbenzoyl)-(4-piperidin-1-ylphenyl)amino]methyl}-N-(2H-tetrazol-5-yl)benzamide]"
5,45,"CC(C)N1C(=O)c2ccc(NC(=O)N(Cc3ccc(C(=O)Nc4nn[nH]n4)cc3)C3CCC(C(C)(C)C)CC3)cc2C1=O (stereo not drawn) [Example 629, 4-[1-(4-tert-Butylcyclohexyl)-3-(N′-isopropylphthalimid-5-yl)ureidomethyl]-N-(2H-tetrazol-5-yl)benzamide]"
6,116,O=C(Nc1nn[nH]n1)c1ccc(CN(C(=O)Nc2cccc(S(=O)(=O)CC3CC3)c2)c2ccc(C3CCCCC3)cc2)cc1 [Example 470]
7,523,"CC(C)(C)C1CCC(N(Cc2ccc(C(=O)Nc3nn[nH]n3)cc2)C(=O)c2ccc(-c3ccccc3)cc2)CC1 (stereo not drawn) [Example 487, Biphenyl-4-carboxylic acid (4-tert-butylcyclohexyl)-[4-(2H-tetrazol-5-ylcarbamoyl)benzyl]amide]"
8,86,"O=C(Nc1nn[nH]n1)c1ccc(CN(C(=O)Nc2cccc(S(=O)(=O)N3CCc4ccccc43)c2)c2ccc(C3CCCCC3)cc2)cc1 [Example 267, 4-{1-(4-Cyclohexylphenyl)-3-[3-(2,3-dihydroindole-1-sulfonyl)phenyl]ureidomethyl}-N-(2H-tetrazol-5-yl)benzamide]"
9,1980,"CC(C)Cc1ccc(C(=O)N(Cc2ccc(C(=O)NCCC(=O)O)cc2)c2ccc(C3CCCCC3)cc2)cc1 [Example 520, 3-(4-{[(4-Cyclohexylphenyl)-(4-isobutylbenzoyl)amino]methyl}benzoylamino)propionic acid]"
10,479,"O=C(O)CCNC(=O)c1ccc(CN(C(=O)c2cc3ccccc3s2)C2CCC3(CCCCC3)CC2)cc1 [Example 619, 3-(4-{[(Benzo[b]thiophene-2-carbonyl)spiro[5.5]undec-3-yl-amino]methyl}benzoylamino)propionic acid]"
11,71,"CC(C)(C)[C@H]1CC[C@H](N(Cc2ccc(C(=O)Nc3nn[nH]n3)cc2)NC(=O)c2ccc(OC(F)(F)F)cc2)CC1 [Example 380, 4-[N-(trans-4-tert-Butylcyclohexyl)-N′-(4-trifluoromethoxybenzoyl)hydrazinomethyl]-N-(2H-tetrazol-5-yl)benzamide]"
12,23,"CC(C)N1C(=O)c2ccc(NC(=O)N(Cc3ccc(C(=O)NCCC(=O)O)cc3)c3ccc(C4CCCCC4)cc3)cc2C1=O [Example 631, 3-{4-[1-(4-Cyclohexyl-phenyl)-3-(N′-isopropylphthalimid-4-yl)ureidomethyl]benzoylamino}propionic acid]"
13,304,"CC(Oc1ccc(Cl)cc1)C(=O)N(Cc1ccc(C(=O)Nc2nn[nH]n2)cc1)C1CCC(C(C)(C)C)CC1 (stereo not drawn) [Example 542, 4-({(4-tert-Butylcyclohexyl)-[2-(4-chlorophenoxy)propionyl]amino}methyl)-N-(2H-tetrazol-5-yl)benzamide]"
14,23,"CCCCN1C(=O)c2ccc(NC(=O)N(Cc3ccc(C(=O)Nc4nn[nH]n4)cc3)c3ccc(C(C)(C)C)cc3)cc2C1=O [Example 378, 4-[3-(2-Butyl-1,3-dioxo-2,3-dihydro-1H-isoindol-5-yl)-1-(4-tert-butylphenyl)ureidomethyl]-N-(2H-tetrazol-5-yl)benzamide]"
15,2670,"CS(=O)(=O)c1ccccc1NC(=O)N(Cc1ccc(C(=O)Nc2nn[nH]n2)cc1)c1ccc(C2CCCCC2)cc1 [Example 466, 4-[1-(4-Cyclohexylphenyl)-3-(2-methylsulfonylphenyl)ureidomethyl]-N-(2H-tetrazol-5-yl)benzamide]"
16,198,"O=C(Nc1nn[nH]n1)c1ccc(CN(C(=O)c2ccc(Cc3ccccc3)cc2)c2ccc(C3CCCCC3)cc2)cc1 [Example 508, 4-{[(4-Cyclohexylphenyl)-(4-benzylbenzoyl)amino]methyl}-N-(2H-tetrazol-5-yl)benzamide]"
17,36,"COC(=O)c1cc(-c2cccc(NC(=O)N(Cc3ccc(C(=O)NCCC(=O)O)cc3)[C@H]3CC[C@H](C4CCCCC4)CC3)c2)oc1C [Example 392, 5-(3-{3-(trans-4-Cyclohexylcyclohexyl)-3-[4-(2-carboxyethylcarbamoyl)benzyl]ureido}phenyl)-2-methylfuran-3-carboxylic acid methyl ester]"
18,627,O=C(Nc1nn[nH]n1)c1ccc(CN(CC(c2ccccc2)c2ccccc2)C(=O)Cc2ccc(OC(F)(F)F)cc2)cc1 [Example 531]
19,83,"COC(=O)CCNC(=O)c1ccc(CN(C(=O)Nc2ccc(OC(F)(F)F)cc2)[C@H]2CC[C@H](C(C)(C)C)CC2)cc1 [Example 98, 3-{4-[1-(trans-4-tert-Butylcyclohexyl)-3-(4-trifluoromethoxyphenyl)ureidomethyl]benzoylamino}propionic acid methyl ester]"
20,886,"CC(C)(C)C1CCC(N(Cc2ccc(C(=O)Nc3nn[nH]n3)cc2)C(=O)c2cc3ccccc3o2)CC1 (stereo not drawn) [Example 475, Benzofuran-2-carboxylic acid (4-tert-butylcyclohexyl)-[4-(2H-tetrazol-5-ylcarbamoyl)benzyl]amide]"
21,49,"CCC(C)(C)[C@H]1CC[C@H](N(Cc2ccc(C(=O)NCCC(=O)O)cc2)C(=O)Nc2ccc(OC(F)(F)F)cc2)CC1 [Example 78, 3-{4-[1-[4-trans-(1,1-Dimethylpropyl)cyclohexyl]-3-(4-trifluoromethoxyphenyl)ureidomethyl]benzoylamino}propionic acid]"
22,2940,"O=C(Nc1nn[nH]n1)c1ccc(CN(CC(c2ccccc2)c2ccccc2)C(=O)/C=C/c2c(Cl)cccc2Cl)cc1 [Example 478, 4-{[[3-(2,6-Dichlorophenyl)acryloyl]-(2,2-diphenylethyl)amino]methyl}-N-(2H-tetrazol-5-yl)benzamide]"

row,Compound,IC50 [nM]
1,"CC(C)(C)c1ccc(N(Cc2ccc(C(=O)NCCC(=O)O)cc2)C(=O)Oc2cc(C(F)(F)F)cc(C(F)(F)F)c2)cc1 [Example 410, 3-(4-{[(3,5-Bis(trifluoromethyl)phenoxycarbonyl)-(4-tert-butylphenyl)amino]methyl}benzoylamino)propionic acid]",386

# Same assay, conditions: Glu Bd Assay (III) IC50 (nM), BHK cell membranes, WGA SPA beads, 125I-glucagon
row,Compound,IC50 [nM]
1,"CC(C)(C)[C@H]1CC[C@H](N(Cc2ccc(C(=O)NCCC(=O)O)cc2)C(=O)Nc2cc(C(F)(F)F)cc(C(F)(F)F)c2)CC1 [Example 237, 3-{4-[3-(3,5-Bis-trifluoromethylphenyl)-1-(trans-4-tert-butylcyclohexyl)ureidomethyl]benzoylamino}propionic acid]",56

# Source: patent publication US6875760B2 (Novo Nordisk A/S, priority 1999, dated 2005)
